The CheMixHub viscosity set
± gives the uncertainty stated by the source.

Experiment: xn = mol fraction of the nth substance listed

BrCCBr + C1CCCCC1
101.33 kPa
Conditions | viscosity [mPa·s]
298.15 K, x1 = 0.1283 | 0.8597 ± 0.011
298.15 K, x1 = 0.2453 | 0.8556 ± 0.01
298.15 K, x1 = 0.3514 | 0.926 ± 0.011
298.15 K, x1 = 0.4599 | 0.9659 ± 0.012
298.15 K, x1 = 0.5537 | 1.009 ± 0.012
298.15 K, x1 = 0.6465 | 1.105 ± 0.013
298.15 K, x1 = 0.7406 | 1.208 ± 0.014
298.15 K, x1 = 0.8327 | 1.311 ± 0.015
298.15 K, x1 = 0.91 | 1.45 ± 0.017
308.15 K, x1 = 0.1562 | 0.7122 ± 0.0089
308.15 K, x1 = 0.2398 | 0.7673 ± 0.0095
308.15 K, x1 = 0.3629 | 0.8116 ± 0.0099
308.15 K, x1 = 0.4545 | 0.8447 ± 0.01
308.15 K, x1 = 0.5559 | 0.9064 ± 0.011
308.15 K, x1 = 0.6741 | 1.021 ± 0.012
308.15 K, x1 = 0.7424 | 1.055 ± 0.012
308.15 K, x1 = 0.8334 | 1.145 ± 0.013
308.15 K, x1 = 0.9281 | 1.286 ± 0.015

C1COCCO1 + C1CCCCC1
viscosity [mPa·s], 101 kPa
Conditions | 298.15 K | 303.15 K | 308.15 K | 313.15 K | 318.15 K
x1 = 0.1001 | – | 0.793 ± 0.008 | – | – | –
x1 = 0.2073 | – | 0.783 ± 0.008 | – | – | –
x1 = 0.3007 | – | 0.785 ± 0.008 | – | – | –
x1 = 0.4018 | – | 0.787 ± 0.008 | – | – | –
x1 = 0.5018 | – | 0.815 ± 0.008 | – | – | –
x1 = 0.5983 | – | 0.841 ± 0.008 | – | – | –
x1 = 0.6997 | – | 0.882 ± 0.009 | – | – | –
x1 = 0.7992 | – | 0.934 ± 0.009 | – | – | –
x1 = 0.8901 | – | 1 ± 0.01 | – | – | –
x2 = 0.0864 | 1.083 ± 0.011 | 1.009 ± 0.01 | 0.936 ± 0.009 | 0.869 ± 0.009 | 0.808 ± 0.008
x2 = 0.2096 | 0.992 ± 0.01 | 0.917 ± 0.009 | 0.851 ± 0.009 | 0.792 ± 0.008 | 0.738 ± 0.007
x2 = 0.286 | 0.943 ± 0.009 | 0.876 ± 0.009 | 0.813 ± 0.008 | 0.756 ± 0.008 | 0.702 ± 0.007
x2 = 0.391 | 0.887 ± 0.009 | 0.82 ± 0.008 | 0.763 ± 0.008 | 0.709 ± 0.007 | 0.661 ± 0.007
x2 = 0.535 | 0.848 ± 0.009 | 0.785 ± 0.008 | 0.73 ± 0.007 | 0.676 ± 0.007 | 0.632 ± 0.007
x2 = 0.6125 | 0.831 ± 0.008 | 0.772 ± 0.008 | 0.715 ± 0.007 | 0.665 ± 0.007 | 0.621 ± 0.006
x2 = 0.685 | 0.821 ± 0.008 | 0.766 ± 0.008 | 0.711 ± 0.007 | 0.66 ± 0.007 | 0.617 ± 0.006
x2 = 0.773 | 0.824 ± 0.008 | 0.763 ± 0.008 | 0.708 ± 0.007 | 0.66 ± 0.007 | 0.614 ± 0.006
x2 = 0.8223 | 0.828 ± 0.008 | 0.768 ± 0.008 | 0.714 ± 0.007 | 0.663 ± 0.007 | 0.617 ± 0.006
x2 = 0.9303 | 0.847 ± 0.009 | 0.781 ± 0.008 | 0.724 ± 0.007 | 0.673 ± 0.007 | 0.627 ± 0.006

Brc1ccccc1 + C1CCOC1
viscosity [mPa·s], 101 kPa
Conditions | x2 = 0.1051 | x2 = 0.2012 | x2 = 0.3022 | x2 = 0.4031 | x2 = 0.4987
298.15 K | 1.014 ± 0.0082 | 0.9619 ± 0.0078 | 0.9067 ± 0.0074 | 0.8488 ± 0.007 | 0.7916 ± 0.0066
313.15 K | 0.8409 ± 0.007 | 0.8 ± 0.0067 | 0.7551 ± 0.0064 | 0.7079 ± 0.006 | 0.6622 ± 0.0057

CCC(C)Cl (configuration not stated) + C1CCOC1
298.15 K, 101 kPa
Conditions | viscosity [mPa·s]
x2 = 0.0544 | 0.3967 ± 0.0052
x2 = 0.111 | 0.3999 ± 0.0052
x2 = 0.2078 | 0.4057 ± 0.0052
x2 = 0.2947 | 0.411 ± 0.0052
x2 = 0.3996 | 0.4176 ± 0.0051
x2 = 0.5075 | 0.4246 ± 0.0051
x2 = 0.6041 | 0.4313 ± 0.0051
x2 = 0.7055 | 0.4387 ± 0.0051
x2 = 0.8076 | 0.4469 ± 0.0051
x2 = 0.9065 | 0.4551 ± 0.0051
x2 = 0.9544 | 0.4592 ± 0.0051

Brc1ccccc1 + C1CCOCC1
viscosity [mPa·s], 101 kPa
Conditions | x2 = 0.097 | x2 = 0.1996 | x2 = 0.3053 | x2 = 0.4011 | x2 = 0.5073
298.15 K | 1.05 ± 0.0085 | 1.037 ± 0.0084 | 1.021 ± 0.0083 | 1 ± 0.0081 | 0.9753 ± 0.0079
313.15 K | 0.8682 ± 0.0072 | 0.8547 ± 0.0071 | 0.8377 ± 0.007 | 0.8212 ± 0.0068 | 0.7989 ± 0.0067

Brc1ccccc1 + C1COCCO1
303.15 K, 101 kPa
Conditions | viscosity [mPa·s]
x1 = 0.083 | 1.075 ± 0.018
x1 = 0.17 | 1.078 ± 0.018
x1 = 0.259 | 1.122 ± 0.018
x1 = 0.352 | 1.131 ± 0.018
x1 = 0.449 | 1.125 ± 0.018
x1 = 0.55 | 1.115 ± 0.018
x1 = 0.655 | 1.108 ± 0.018
x1 = 0.766 | 1.079 ± 0.018
x1 = 0.88 | 1.034 ± 0.017

COc1ccccc1O + C1COCCO1
308.15 K, 101 kPa
Conditions | viscosity [mPa·s]
x2 = 0.1 | 4.29 ± 0.053
x2 = 0.2 | 4.18 ± 0.051
x2 = 0.3 | 3.795 ± 0.047
x2 = 0.4 | 3.347 ± 0.041
x2 = 0.5 | 2.73 ± 0.034
x2 = 0.6 | 2.231 ± 0.028
x2 = 0.7 | 1.834 ± 0.023
x2 = 0.8 | 1.453 ± 0.018
x2 = 0.9 | 1.172 ± 0.015

C1=C[C@H]2[C@@H](C1)[C@H]1C=C[C@@H]2C1 + CC1CCCCC1
viscosity [mPa·s], 101.2 kPa
Conditions | x1 = 0.0987 | x1 = 0.2012 | x1 = 0.3023 | x1 = 0.4007 | x1 = 0.5024 | x1 = 0.6001 | x1 = 0.6994 | x1 = 0.8017 | x1 = 0.9021
293.15 K | 0.8197 ± 0.043 | 0.9187 ± 0.049 | 1.043 ± 0.058 | 1.198 ± 0.07 | 1.398 ± 0.085 | 1.646 ± 0.11 | 2.032 ± 0.15 | 2.607 ± 0.21 | 3.386 ± 0.28
298.15 K | 0.7605 ± 0.04 | 0.8517 ± 0.046 | 0.9677 ± 0.053 | 1.1 ± 0.063 | 1.28 ± 0.077 | 1.504 ± 0.1 | 1.855 ± 0.14 | 2.367 ± 0.18 | 3.029 ± 0.24
303.15 K | 0.7145 ± 0.037 | 0.791 ± 0.042 | 0.8907 ± 0.049 | 1.011 ± 0.058 | 1.178 ± 0.071 | 1.387 ± 0.091 | 1.693 ± 0.12 | 2.156 ± 0.16 | 2.723 ± 0.21
308.15 K | 0.6717 ± 0.035 | 0.7439 ± 0.039 | 0.8387 ± 0.046 | 0.9497 ± 0.055 | 1.109 ± 0.068 | 1.306 ± 0.085 | 1.586 ± 0.11 | 1.993 ± 0.14 | 2.477 ± 0.18
313.15 K | 0.6316 ± 0.033 | 0.7051 ± 0.038 | 0.7996 ± 0.044 | 0.9101 ± 0.052 | 1.05 ± 0.062 | 1.226 ± 0.078 | 1.473 ± 0.1 | 1.819 ± 0.13 | 2.259 ± 0.17
318.15 K | 0.5952 ± 0.032 | 0.6697 ± 0.036 | 0.7496 ± 0.041 | 0.8519 ± 0.048 | 0.9802 ± 0.058 | 1.138 ± 0.071 | 1.359 ± 0.091 | 1.668 ± 0.12 | 2.059 ± 0.15

C1COCCO1 + CC#N
viscosity [mPa·s], 101 kPa
Conditions | x2 = 0.1926 | x2 = 0.3492 | x2 = 0.4791 | x2 = 0.5886 | x2 = 0.6822 | x2 = 0.763 | x2 = 0.8336 | x2 = 0.8957 | x2 = 0.9508
298.15 K | 0.9468 ± 0.024 | 0.772 ± 0.02 | 0.6349 ± 0.016 | 0.5315 ± 0.014 | 0.4573 ± 0.012 | 0.4099 ± 0.011 | 0.3679 ± 0.0096 | 0.3482 ± 0.0091 | 0.3389 ± 0.0089
308.15 K | 0.8244 ± 0.021 | 0.6862 ± 0.018 | 0.5802 ± 0.015 | 0.503 ± 0.013 | 0.4477 ± 0.012 | 0.4079 ± 0.011 | 0.3775 ± 0.0098 | 0.3531 ± 0.0092 | 0.334 ± 0.0087
318.15 K | 0.7189 ± 0.019 | 0.5994 ± 0.015 | 0.5014 ± 0.013 | 0.4305 ± 0.011 | 0.3854 ± 0.01 | 0.3542 ± 0.0093 | 0.3354 ± 0.0088 | 0.3194 ± 0.0084 | 0.3076 ± 0.0081
